Patent US5776886A, “Intravaginal preparation containing physiologically active peptide” (Teikoku Seiyaku Kabushiki Kaisha, priority 1993, dated 1998)

Tests used:
Format in all cases: in vivo, Wistar rats
[1] = tested on: calcium level in the serum; experiment: Experiment 7: effects of pH of the solution in the suppository on serum calcium reduction; details: for Reduction rate (%) of calcium level in the serum: citric acid + S-970, intravaginal 20 μg, rats
Method: (§1) An intravaginal suppository was administered into the rat's vagina, and the blood was collected periodically (2, 4 and 6 hours after administration of the test preparation).
(§2) The serum was separated, and the calcium level in the serum was determined by using a kit for determination of calcium (Calcium C Test Wako; manufactured by Wako Pure Chemical Industries, Ltd.) (n=3).
(§3) In the same manner as in Experiment 1, each intravaginal suppository was administered to the rat's vagina, and the blood was collected periodically (2, 4 and 6 hours after administration of intravaginal suppository), and the calcium level in the serum thereof was determined (n=3).

[2] = tested on: calcium level in the serum; experiment: Experiment 6: effects of the concentration of organic acid on serum calcium reduction; details: for Reduction rate (%) of calcium level in the serum: pH 3.5, + S-970, intravaginal suppository 20 μg, rats
Method: as §1, §2, §3

[3] = tested on: calcium level in the serum; experiment: Experiment 5: sucrose fatty acid ester with various organic acids, serum calcium reduction; details: for Reduction rate (%) of calcium level in the serum: intravaginal suppository 20 μg, rats
Method: as §1, §2
In the same manner as in Experiment 1, each intravaginal suppository was administered to the rat's vagina, and the blood was collected periodically (2, 4 and 6 hours after administration of intravaginal suppository), and the calcium level in the serum thereof was determined (n=5).

[4] = tested on: calcium level in the serum; experiment: Experiment 2: effects of various bases on serum calcium reduction; details: base Cacao butter, S-970 + citric acid, intravaginal suppository 20 μg, rats
Method: as §1, §2
In the same manner as in Experiment 1, each intravaginal suppository was administered to the rat's vagina, and the blood was collected periodically (2, 4 and 6 hours after administration of intravaginal suppository), and the calcium level in the serum thereof was determined (n=4).

Human calcitonin was tested, and the “promotion effect of a combination of a sucrose fatty acid ester and citric acid” value ([1]; pH of the solution 3.0 to 5.5) was “observed in the cases of pH 3.0 to 5.5, and the effects thereof were not significantly different in the cases of pH 3.0 to 4.5”, the “Reduction rate (%) of calcium level in the serum” value ([1]; pH of the solution in suppository 3.0, 2 hr) was 11.0% and the “Reduction rate (%) of calcium level in the serum” value ([1]; pH of the solution in suppository 3.0, 4 hr) was 22.0%. The “Reduction rate (%) of calcium level in the serum” value ([1]; pH of the solution in suppository 3.0, 6 hr) was 8.7%, the “Reduction rate (%) of calcium level in the serum” value ([1]; pH of the solution in suppository 3.5, 2 hr) was 9.4% and the “Reduction rate (%) of calcium level in the serum” value ([1]; pH of the solution in suppository 3.5, 4 hr) was 19.8%. For the same substance, the “Reduction rate (%) of calcium level in the serum” value ([1]; pH of the solution in suppository 3.5, 6 hr) was 8.8%, the “Reduction rate (%) of calcium level in the serum” value ([1]; pH of the solution in suppository 4.0, 2 hr) was 9.4% and the “Reduction rate (%) of calcium level in the serum” value ([1]; pH of the solution in suppository 4.0, 4 hr) was 20.2%. For the same substance, the “Reduction rate (%) of calcium level in the serum” value ([1]; pH of the solution in suppository 4.0, 6 hr) was 10.2%, the “Reduction rate (%) of calcium level in the serum” value ([1]; pH of the solution in suppository 4.5, 2 hr) was 9.5% and the “Reduction rate (%) of calcium level in the serum” value ([1]; pH of the solution in suppository 4.5, 4 hr) was 22.8%. The “Reduction rate (%) of calcium level in the serum” value ([1]; pH of the solution in suppository 4.5, 6 hr) was 9.1%, the “Reduction rate (%) of calcium level in the serum” value ([1]; pH of the solution in suppository 5.0, 2 hr) was 10.2% and the “Reduction rate (%) of calcium level in the serum” value ([1]; pH of the solution in suppository 5.0, 4 hr) was 11.4%. For the same substance, the “Reduction rate (%) of calcium level in the serum” value ([1]; pH of the solution in suppository 5.0, 6 hr) was 2.7%, the “Reduction rate (%) of calcium level in the serum” value ([1]; pH of the solution in suppository 5.5, 2 hr) was 8.1% and the “Reduction rate (%) of calcium level in the serum” value ([1]; pH of the solution in suppository 5.5, 4 hr) was 13.2%. For the same substance, the “Reduction rate (%) of calcium level in the serum” value ([1]; pH of the solution in suppository 5.5, 6 hr) was 4.3%, the “calcium level in the blood” value ([2]; citric acid 1, 2, 5 or 10 w/w % with sucrose fatty acid ester) was “reduced at any concentration of citric acid to be used” and the “Reduction rate (%) of calcium level in the serum” value ([2]; organic acid (citric acid) 1 w/w %, 2 hr) was 14.6%. For the same substance, the “Reduction rate (%) of calcium level in the serum” value ([2]; organic acid (citric acid) 1 w/w %, 4 hr) was 15.7%, the “Reduction rate (%) of calcium level in the serum” value ([2]; organic acid (citric acid) 1 w/w %, 6 hr) was 9.2% and the “Reduction rate (%) of calcium level in the serum” value ([2]; organic acid (citric acid) 2 w/w %, 2 hr) was 15.3%. The “Reduction rate (%) of calcium level in the serum” value ([2]; organic acid (citric acid) 2 w/w %, 4 hr) was 18.7%, the “Reduction rate (%) of calcium level in the serum” value ([2]; organic acid (citric acid) 2 w/w %, 6 hr) was 8.2% and the “Reduction rate (%) of calcium level in the serum” value ([2]; organic acid (citric acid) 5 w/w %, 2 hr) was 17.9%. The “Reduction rate (%) of calcium level in the serum” value ([2]; organic acid (citric acid) 5 w/w %, 4 hr) was 19.4%, the “Reduction rate (%) of calcium level in the serum” value ([2]; organic acid (citric acid) 5 w/w %, 6 hr) was 7.5% and the “Reduction rate (%) of calcium level in the serum” value ([2]; organic acid (citric acid) 10 w/w %, 2 hr) was 18.4%. For the same substance, the “Reduction rate (%) of calcium level in the serum” value ([2]; organic acid (citric acid) 10 w/w %, 4 hr) was 19.0%, the “Reduction rate (%) of calcium level in the serum” value ([2]; organic acid (citric acid) 10 w/w %, 6 hr) was 5.0% and the “Reduction rate (%) of calcium level in the serum” value ([3]; organic acid: citric acid (pH 4) + Ryoto-Sugar Ester R-970, 2 hr) was 11.4%. For the same substance, the “Reduction rate (%) of calcium level in the serum” value ([3]; organic acid: citric acid (pH 4) + Ryoto-Sugar Ester R-970, 4 hr) was 19.6%, the “Reduction rate (%) of calcium level in the serum” value ([3]; organic acid: citric acid (pH 4) + Ryoto-Sugar Ester R-970, 6 hr) was 8.4% and the “Reduction rate (%) of calcium level in the serum” value ([3]; organic acid: lactic acid (pH 4) + Ryoto-Sugar Ester R-970, 2 hr) was 17.0%. For the same substance, the “Reduction rate (%) of calcium level in the serum” value ([3]; organic acid: lactic acid (pH 4) + Ryoto-Sugar Ester R-970, 4 hr) was 10.6%, the “Reduction rate (%) of calcium level in the serum” value ([3]; organic acid: lactic acid (pH 4) + Ryoto-Sugar Ester R-970, 6 hr) was 5.4% and the “Reduction rate (%) of calcium level in the serum” value ([3]; organic acid: malic acid (pH 4) + Ryoto-Sugar Ester R-970, 2 hr) was 18.6%. The “Reduction rate (%) of calcium level in the serum” value ([3]; organic acid: malic acid (pH 4) + Ryoto-Sugar Ester R-970, 4 hr) was 13.0%, the “Reduction rate (%) of calcium level in the serum” value ([3]; organic acid: malic acid (pH 4) + Ryoto-Sugar Ester R-970, 6 hr) was 7.0% and the “Reduction rate (%) of calcium level in the serum” value ([3]; organic acid: tartaric acid (pH 4) + Ryoto-Sugar Ester R-970, 2 hr) was 12.2%. The “Reduction rate (%) of calcium level in the serum” value ([3]; organic acid: tartaric acid (pH 4) + Ryoto-Sugar Ester R-970, 4 hr) was 8.0%, the “Reduction rate (%) of calcium level in the serum” value ([3]; organic acid: tartaric acid (pH 4) + Ryoto-Sugar Ester R-970, 6 hr) was 3.4% and the calcium level ([3]; sucrose fatty acid ester with citric, tartaric, lactic or malic acid) was “significantly reduced regardless of any organic acid to be used”. For the same substance, the “Reduction rate (%) of calcium level in the serum” value ([4]; 2 hr) was 12.5% and the “Reduction rate (%) of calcium level in the serum” value ([4]; 4 hr) was 10.7%.
